# From patent US20220017572A1, “GEMINOID LIPOPEPTIDE COMPOUNDS AND THEIR USES” (Erasmus University Medical Center Rotterdam, priority 2016, published 2022)
# Residues, ends and D or L forms follow the SMILES beside them.
# Legend:
# dengue 2 protease = biological target: T1, dengue 2 protease (Dengue virus type 2, UniProt P14340); assay: Dengue 2 protease inhibition, hydrolysis of Z-RR-MCA; assay type: biochemical, dengue 2 virus; design: unit not given here; details: 30 μM of inhibitor; 10 μM Z-RR-MCA, pH 9.0, 37° C.; initial activity in UAF/min
# T1 construct: The active site of the dengue protease is in the N-terminal part of NS3
# T1 sequence (P14340 1476-1653): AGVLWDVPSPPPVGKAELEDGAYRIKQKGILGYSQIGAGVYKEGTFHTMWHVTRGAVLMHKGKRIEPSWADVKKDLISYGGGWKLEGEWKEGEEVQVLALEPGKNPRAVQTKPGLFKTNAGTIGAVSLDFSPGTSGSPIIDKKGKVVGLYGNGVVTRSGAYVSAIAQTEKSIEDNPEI
# DENV-2/NGC = assay: Dengue replication (plaque) assay in VERO cells; assay type: cell-based, Dengue virus
# Description: 1×10^6 Vero E6 cells were plated per well into a 6-wells plate and incubated overnight at 37° C. Next day, the DENV-2/NGC virus stock was diluted to 10^4 TICD50/ml, 10^3 TICD50/ml, 10^2 TICD50/ml and 1 ml of the respective virus dilutions was added to each well. Wells contained approximately 80% confluent monolayers of Vero cells. After an incubation period of 1 hour at 37° C., cells were washed twice with medium (DMEM) and medium containing 2% methyl cellulose was added to the wells. To this medium C16-KAK-C16 10 uM was added (W) in DMSO, or an equivalent amount of DMSO (0.05%) was added (W/O). Plate was incubated at 37° C. for two days. Methyl cellulose overlays were removed and cells were fixed with absolute ethanol. Cells were subsequently incubated with specific DENY monoclonal antibody for 1 hour at 37° C., followed by incubation with HRPO-labeled rabbit-anti mouse conjugate. Positive plaques were counted after incubation with AEC substrate chromogen.
# The experiment was performed as described in the legend of FIG. 8 at a viral dose of 10^3 TICD50/ml in all plates.
# C16-KAK-C16 was subsequently tested in a standard Dengue replication (plaque) assay in VERO cells (FIG. 8). […] In a separate experiment this was confirmed with a constant intermediate viral load of and different concentrations of C16-KAK-C16 (FIG. 9)
# [1] = biological target: T2, Dengue NS3-NS2B peptidase (Dengue virus type 2, UniProt P14340); assay: Dengue NS3-NS2B peptidase hydrolysis of Abz-AKRRSQ-EDDnp; assay type: biochemical; details: 50 mM Tris-HCl pH 9.0, FIG. 5
# T2 construct: The active site of the dengue protease is in the N-terminal part of NS3
# T2 sequence (P14340 1476-1653): as above
# Description: FIG. 5A, FIG. 5B and FIG. 5C show Dengue NS3-NS2B peptidase hydrolysis of Abz-AKRRSQ-EDDnp (SEQ ID NO:1) in 50 mM Tris-HCl pH 9.0. FIG. 5A Inhibitors: (◯) C16-KAAK-C16 (SEQ ID NO:42), (▪)C16-KAK-C16, (▴)C16-KGGK-C16(SEQ ID NO:41). FIG. 5B Substrates: (◯) Abz AKRRSQ-EDDnp (SEQ ID NO:1) and (●) Suc AAPF-MCA with different concentrations of C16-KGGK-C16 (SEQ ID NO:41). FIG. 5C Followed in time at different C16-KGGK-C16 (SEQ ID NO:41) concentrations.
# FIG. 6A and FIG. 6B show Dengue NS3-NS2B peptidase hydrolysis of Abz AKRRSQ-EDDnp (SEQ ID NO:1) in the presence of C16-KK-C16 (KR), C16-KAK-C16 (KAK), C16-KAAK-C16 (KAAK; (SEQ ID NO:42)), C16-KAAAAK-C16 (KAAAAK; (SEQ ID NO:53)), C16-KGK-C16 (KOK), C16-KGGK-C16 (KOOK; (SEQ ID NO:41)), and C16-KGGGK-C16 (KGGGK; (SEQ ID NO:40)). “◯” means enzyme activity without inhibitor. FIG. 6A E+K means that the inhibitor+enzyme were pre-incubated for 0, 15 and 30 min and then the substrate was added. FIG. 6B K means that the inhibitor was pre-incubated for 0, 15 and 30 min and then the enzyme and substrate were added.
# The best substrate for dengue protease is Abz-AKRR↓SQ-EDDnp (SEQ ID NO:1) [Gouvea et al., 2007]. […] Geminoids with either G or A are inhibitors of Dengue protease, but which is the better inhibitor does depend on the nature of the substrates (compare FIG. 5a and Table 1). […]
Structure (SMILES),Activity with inhibitors (dengue 2 protease),"inhibition of plaque formation (DENV-2/NGC; 10 uM, Vero E6 cells, DENV-2/NGC 10^2-10^4 TICD50/ml, two days, depending on the viral load)","virus replication (in words) (DENV-2/NGC; VERO cells, DENV-2/NGC)",inhibition of Dengue protease with substrate Abz-AKRRSQ-EDDnp (in words) [1]
CCCCCCCCCCCCCCCCNC(=O)[C@H](CCCCN)NC(=O)[C@H](C)NC(=O)[C@H](CCCCN)NC(=O)CCCCCCCCCCCCCCC [C16-KAK-C16],0,up to 90%,significant reduction of virus replication,–
"CCCCCCCCCCCCCCCCNC(=O)[C@H](CCCCN)NC(=O)CNC(=O)CNC(=O)[C@H](CCCCN)NC(=O)CCCCCCCCCCCCCCC [C16-KGGK-C16, C15H31CO-KGGK-NH—C16H33] (HELM PEPTIDE1{[CCCCCCCCCCCCCCCC(=O)[*:2]].K.G.G.K.[CCCCCCCCCCCCCCCCN[*:1]]}$$$$V2.0)",–,–,–,does not depend on the choice of substrate
